The record followed here is US8754226B2, “Piperidinyl-substituted lactams as GPR119 modulators” (Array BioPharma Inc., priority 2010, dated 2014).

This experiment relates to modified version of the GPR119 receptor (94% identity to human receptor). In words: cAMP production assay (LANCE cAMP kit, TR-FRET) in HEK-293 cells. Type of experiment: cell-based. The following applies: for cAMP production in HEK-293 cells: HEK-293 cells stably expressing modified GPR119, test compounds 0.2 nM to 10 μM, one-hour incubation at ambient temperature; for Fold over baseline: increase in cAMP relative to basal levels, agonist activity if 1.5-fold or greater. The essentials:
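Doxycycline-induced (1 μg/mL, overnight) HEK-293 cells expressing modified GPR119 were thawed, 2000 cells/well, and exposed to compounds (0.2 nM-10 μM final, 0.5% DMSO) for 1 h at ambient temperature in HBSS/HEPES/BSA. cAMP was measured by LANCE TR-FRET against a standard curve. Agonism was defined as ≥1.5-fold over basal.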
(Changes in cAMP serve as a functional read-out for many G protein-coupled receptors.)

The structures appear in SMILES notation.

With `CS(=O)(=O)c1cc(F)c(N[C@H]2CCN(C3CCN(c4ncc(C(F)(F)F)cc4Cl)CC3)C2=O)c(F)c1` [Example 108, (S)-1-(1-(3-chloro-5-(trifluoromethyl)pyridin-2-yl)piperidin-4-yl)-3-(2,6-difluoro-4-(methylsulfonyl)phenyl-amino)pyrrolidin-2-one], the “cAMP production in HEK-293 cells” value was determined as 15.8 nmol and the Fold over baseline came to 2.6.

`CS(=O)(=O)c1ccc(N[C@H]2CCN(C3CCN(c4ncc(Cl)cc4Cl)CC3)C2=O)c(F)c1` [Example 109, (S)-1-(1-(3,5-dichloropyridin-2-yl)piperidin-4-yl)-3-(2-fluoro-4-(methylsulfonyl)phenyl-amino)pyrrolidin-2-one]: the “cAMP production in HEK-293 cells” value came out at 15.8 nmol and the Fold over baseline worked out at 2.9.

Turning to `CS(=O)(=O)c1cc(F)c(N[C@H]2CCN(C3CCN(c4ncc(Cl)cc4Cl)CC3)C2=O)c(F)c1` [Example 110, (S)-1-(1-(3,5-dichloropyridin-2-yl)piperidin-4-yl)-3-(2,6-difluoro-4-(methylsulfonyl)phenyl-amino)pyrrolidin-2-one], the “cAMP production in HEK-293 cells” value came out at 29.3 nmol and the Fold over baseline worked out at 2.3.

For `CS(=O)(=O)c1cc(F)c(N[C@H]2CCN(C3CCN(c4ncc(C(F)(F)F)cc4Cl)CC3)C2=O)cc1F` [Example 111, (S)-1-(1-(3-chloro-5-(trifluoromethyl)pyridin-2-yl)piperidin-4-yl)-3-(2,5-difluoro-4-(methylsulfonyl)phenyl-amino)pyrrolidin-2-one], the “cAMP production in HEK-293 cells” value was determined as 37.9 nmol and the Fold over baseline is recorded as 3.0.

Consider `CS(=O)(=O)c1ccc(N[C@H]2CCN(C3CCN(c4ccc(C#N)cn4)CC3)C2=O)c(F)c1` [Example 112, (S)-6-(4-(3-(2-fluoro-4-(methylsulfonyl)phenyl-amino)-2-oxopyrrolidin-1-yl)piperidin-1-yl)nicotinonitrile], for which the “cAMP production in HEK-293 cells” value stood at 22.5 nmol and the Fold over baseline is 1.7.

On to `CS(=O)(=O)c1cc(F)c(N[C@H]2CCN(C3CCN(c4ncc(Cl)cc4Cl)CC3)C2=O)cc1F` [Example 113, (S)-1-(1-(3,5-dichloropyridin-2-yl)piperidin-4-yl)-3-(2,5-difluoro-4-(methylsulfonyl)phenyl-amino)pyrrolidin-2-one], for which the “cAMP production in HEK-293 cells” value was 29.1 nmol and the Fold over baseline was found to be 2.1.

Regarding `CS(=O)(=O)c1ccc(N[C@H]2CCN(C3CCN(c4ncc(C(F)(F)F)cc4F)CC3)C2=O)c(F)c1` [Example 114, (S)-3-(2-fluoro-4-(methylsulfonyl)phenyl-amino)-1-(1-(3-fluoro-5-(trifluoromethyl)pyridin-2-yl)piperidin-4-yl)pyrrolidin-2-one], the “cAMP production in HEK-293 cells” value stood at 17.7 nmol and the Fold over baseline is given as 3.8.

For the molecule `CS(=O)(=O)c1ccc(N[C@H]2CCN(C3CCN(c4ncc(Cl)cc4F)CC3)C2=O)c(F)c1` [Example 115, (S)-1-(1-(5-chloro-3-fluoropyridin-2-yl)piperidin-4-yl)-3-(2-fluoro-4-(methylsulfonyl)phenyl-amino)pyrrolidin-2-one], the “cAMP production in HEK-293 cells” value came out at 15.4 nmol and the Fold over baseline is 3.8.

`CS(=O)(=O)c1ccc(N[C@H]2CCN(C3CCN(c4ncc(Cl)cc4C#N)CC3)C2=O)c(F)c1` [Example 116, (S)-5-chloro-2-(4-(3-(2-fluoro-4-(methylsulfonyl)phenyl-amino)-2-oxopyrrolidin-1-yl)piperidin-1-yl)nicotinonitrile]: the “cAMP production in HEK-293 cells” value is 10.2 nmol and the Fold over baseline was 2.1.

Turning to `CS(=O)(=O)c1cc(F)c(N[C@H]2CCN(C3CCN(c4ncc(C(F)(F)F)cc4F)CC3)C2=O)c(F)c1` [Example 117, (S)-3-(2,6-difluoro-4-(methylsulfonyl)phenyl-amino)-1-(1-(3-fluoro-5-(trifluoromethyl)pyridin-2-yl)piperidin-4-yl)pyrrolidin-2-one], the “cAMP production in HEK-293 cells” value is 31.1 nmol and the Fold over baseline came to 4.0.

With `CS(=O)(=O)c1ccc(N[C@@H]2CCN(C3CCN(c4cnc(Cl)cn4)CC3)C2=O)c(F)c1` [Example 118, (R)-1-(1-(5-chloropyrazin-2-yl)piperidin-4-yl)-3-(2-fluoro-4-(methylsulfonyl)phenyl-amino)pyrrolidin-2-one], the “cAMP production in HEK-293 cells” value amounted to 40.6 nmol and the Fold over baseline is reported as 3.4.

As to `CS(=O)(=O)c1ccc(N[C@H]2CCN(C3CCN(c4ncc(C(F)(F)F)cc4Cl)CC3)C2=O)cn1` [Example 119, (S)-1-(1-(3-chloro-5-(trifluoromethyl)pyridin-2-yl)piperidin-4-yl)-3-(6-(methylsulfonyl)pyridin-3-ylamino)pyrrolidin-2-one], the “cAMP production in HEK-293 cells” value came to 16.3 nmol and the Fold over baseline amounted to 3.3.

With `Cc1cc(N[C@H]2CCN(C3CCN(c4ncc(Cl)cc4F)CC3)C2=O)cnc1S(C)(=O)=O` [Example 120, (S)-1-(1-(5-chloro-3-fluoropyridin-2-yl)piperidin-4-yl)-3-(5-methyl-6-(methylsulfonyl)pyridin-3-ylamino) pyrrolidin-2-one], the “cAMP production in HEK-293 cells” value came out at 18.6 nmol and the Fold over baseline is given as 3.8.

`Cc1cc(S(C)(=O)=O)ncc1N[C@H]1CCN(C2CCN(c3ncc(Cl)cc3F)CC2)C1=O` [Example 121, (S)-1-(1-(5-chloro-3-fluoropyridin-2-yl)piperidin-4-yl)-3-(4-methyl-6-(methylsulfonyl)pyridin-3-ylamino) pyrrolidin-2-one]: the “cAMP production in HEK-293 cells” value worked out at 10.6 nmol and the Fold over baseline is 2.5.

For `Cc1cc(S(C)(=O)=O)ncc1N[C@H]1CCN(C2CCN(c3ncc(Cl)cc3C#N)CC2)C1=O` [Example 122, (S)-5-chloro-2-(4-(3-(4-methyl-6-(methylsulfonyl)pyridin-3-ylamino)-2-oxopyrrolidin-1-yl)piperidin-1-yl) icotinonitrile], the “cAMP production in HEK-293 cells” value stood at 6.5 nmol and the Fold over baseline came to 1.5.

Turning to `Cc1cc(S(C)(=O)=O)ncc1N[C@H]1CCN(C2CCN(c3cnc(Cl)cn3)CC2)C1=O` [Example 123, (S)-1-(1-(5-chloropyrazin-2-yl)piperidin-4-yl)-3-(4-methyl-6-(methylsulfonyl)pyridin-3-ylamino) pyrrolidin-2-one], the “cAMP production in HEK-293 cells” value was found to be 15.8 nmol and the Fold over baseline was 3.5.

`O=C1[C@@H](Nc2ccc(S(=O)(=O)C3CC3)nc2)CCN1C1CCN(c2cnc(Cl)cn2)CC1` [Example 124, (S)-1-(1-(5-chloropyrazin-2-yl)piperidin-4-yl)-3-(6-(cyclopropylsulfonyl)pyri-din-3-ylamino)pyrrolidin-2-one]: the “cAMP production in HEK-293 cells” value came out at 14.1 nmol and the Fold over baseline turned out to be 3.6.

With `Cc1cc(S(C)(=O)=O)ncc1N[C@H]1CCN(C2CCN(c3ncc(Cl)cc3Cl)CC2)C1=O` [Example 125, (S)-1-(1-(3,5-dichloro-pyridin-2-yl)piperidin-4-yl)-3-(4-methyl-6-(methylsulfonyl)pyridin-3-ylamino)pyrrolidin-2-one], the “cAMP production in HEK-293 cells” value came to 9.0 nmol and the Fold over baseline was 2.0.
